For the test, the target named is T1, human CXCR2 receptor (Homo sapiens, UniProt P25025).
T1 construct: purchased Biosignal Packard Inc; host or cells: CHO-K1 membranes
T1 sequence (P25025 1-360): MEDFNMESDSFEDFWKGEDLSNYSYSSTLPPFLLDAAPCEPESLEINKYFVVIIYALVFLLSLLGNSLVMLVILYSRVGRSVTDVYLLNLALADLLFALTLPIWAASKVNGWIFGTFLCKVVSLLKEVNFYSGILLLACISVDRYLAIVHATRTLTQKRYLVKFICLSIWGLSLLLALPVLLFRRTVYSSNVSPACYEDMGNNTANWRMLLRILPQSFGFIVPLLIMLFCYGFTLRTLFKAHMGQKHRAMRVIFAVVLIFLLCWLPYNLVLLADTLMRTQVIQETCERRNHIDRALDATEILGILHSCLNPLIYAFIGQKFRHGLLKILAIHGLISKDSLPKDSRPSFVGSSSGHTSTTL
As to the kind of experiment: [35S]-GTPγS binding assay for human CXCR2 receptor using SPA technology. Conditions: CHO-K1 membranes expressing human CXCR2 receptors; 100 nM IL-8 stimulated [35S]GTPγS binding; read-out: IC50 values in the [35S]-GPTγS binding assay. The format is biochemical. From the text:
[^35S]-GTPγS Binding Assay for Human CXCR2 Receptor Using SPA Technology
[^35S]-GTPγS (with specific activity 1082 Ci/mmol) and wheat germ agglutinin poly vinyl toluene scintillation proximity beads are purchased from Amersham Pharmacia Biotech. The Chinese hamster ovary cell (CHO-K1) membranes expressing human CXCR2 receptors are purchased from Biosignal Packard Inc. All other chemicals are of analytical grade. White non-binding surface 96 well Optiplate™ microplates are obtained from Packard. Recombinant human IL-8 is synthesised, cloned and expressed in Escherichia coli as described previously (Lindley I, et al., Proc. Natl. Acad. Sci., 1988, 85(23):9199). The assay is performed in duplicate in 96 well Optiplate™ microplate in a final volume of 250 μl per well. Compounds are diluted in DMSO (0.5% final concentration) and incubated in 20 mM HEPES buffer pH 7.4 containing 10 mM MgCl2, 100 mM NaCl, 1 mM EDTA plus 100 nM IL-8, 50 μM GDP and 500 pM [^35S]GTPγS per well. SPA beads (1 mg/well final concentration) were pre-mixed with the membranes (10 μg/well final concentration) in assay buffer: 20 mM HEPES buffer pH 7.4 containing 10 mM MgCl2, 100 mM NaCl, 1 mM EDTA. The bead membrane mixture is added to each well, plates are sealed and incubated at room temperature for 60 minutes. The plate is centrifuged and read on Packard TopCount™ scintillation counter, program [^35S dpm] for 1 min/well. Data are expressed as the % response to 100 nM IL-8 minus basal.

These results are taken from patent publication US20110009429A1, “HETEROCYCLIC COMPOUNDS AS INHIBITORS OF CXCR2” (priority 2008, published 2011).

One may read the IC50 as the point on the concentration scale where inhibition reaches its midpoint.

In the case of `Cc1cc2nc(CCc3ccccc3F)cc(O)n2n1` [Example 1, 5-[2-(2-Fluoro-phenyl)-ethyl]-2-methyl-pyrazolo[1,5-a]pyrimidin-7-ol], the IC50 was determined as 2.97 µM. With `Oc1cc(CCc2ccccc2Cl)nc2cc(Cc3ccccc3)nn12` [Example 4, 2-Benzyl-5-[2-(2-chloro-phenyl)-ethyl]-pyrazolo[1,5-a]pyrimidin-7-ol] the figure was 0.66 µM; with `Oc1cc(CCc2cccc(F)c2F)nc2cc(-c3ccco3)nn12` [Example 7, 5-[2-(2,3-Difluoro-phenyl)-ethyl]-2-furan-2-yl-pyrazolo[1,5-a]pyrimidin-7-ol], 0.22 µM. Regarding `Cc1cc2nc(COc3ccccc3Cl)cc(O)n2n1` [Example 10, 5-(2-Chloro-phenoxymethyl)-2-methyl-pyrazolo[1,5-a]pyrimidin-7-ol], the IC50 stood at 4.89 µM. With `Oc1cc(COc2c(F)cccc2F)nc2cc(-c3ccco3)nn12` [Example 14, 5-(2,6-Difluoro-phenoxymethyl)-2-furan-2-yl-pyrazolo[1,5-a]pyrimidin-7-ol] the figure was 3.83 µM. With `Oc1cc(COc2cccnc2Cl)nc2cc(-c3ccco3)nn12` [Example 17, 5-(2-Chloro-pyridin-3-yloxymethyl)-2-furan-2-yl-pyrazolo[1,5-a]pyrimidin-7-ol] the figure was 0.99 µM. With `Oc1cc(COc2cccc(F)c2F)nc2cc(-c3ccco3)nn12` [Example 22, 5-(2,3-Difluoro-phenoxymethyl)-2-furan-2-yl-pyrazolo[1,5-a]pyrimidin-7-ol] the figure was 1.74 µM; with `Oc1cc(COc2ccccc2Cl)nc2cc(-c3ccco3)nn12` [Example 23, 5-(2-Chloro-phenoxymethyl)-2-furan-2-yl-pyrazolo[1,5-a]pyrimidin-7-ol], 1.77 µM.
